Target: SARS-COV-2 3CLpro/Mpro protease (Severe acute respiratory syndrome coronavirus 2 (2019-nCoV) (SARS-CoV-2), UniProt P0DTD1)
Assay: Inhibitory effect on SARS-COV-2 3CLpro/Mpro protease by fluorescence resonance energy transfer
Format: biochemical
Details: activity intervals A-D, read-out: IC50 (nM), Inhibition on SARS-CoV-2 3CLpro/Mpro protease

SMILES	IC50 [nM]
CNc1cncc(C(=O)N2C[C@H](Nc3c(C(=O)N4C[C@@H](C)O[C@@H](C)C4)cc(Br)cc3[N+](=O)[O-])C[C@H]2C(N)=O)c1 [Example 379, (2S,4R)-4-((4-bromo-2-((2R,6S)-2,6-dimethylmorpholin-4-carbonyl)-6-nitrophenyl)amino)-1-(5-(methylamino)nicotinoyl) pyrrolidin-2-formamide]	10 to 50
CNc1cncc(C(=O)N2C[C@H](Nc3c(C(=O)N4C[C@@H](C)O[C@@H](C)C4)cc(Br)cc3[N+](=O)[O-])CC2C(=O)NCC(F)(F)F)c1 (some centres unmarked) [Example 380]	10 to 50
CNc1cncc(C(=O)N2C[C@H](Nc3c(C(=O)N4C[C@@H](C)O[C@@H](C)C4)cc(Br)cc3[N+](=O)[O-])C[C@H]2C(=O)N2CC(F)(F)C2)c1 [Example 382]	50 to 100
CNc1cncc(C(=O)N2C[C@H](Nc3c(C(=O)N4C[C@@H](C)O[C@@H](C)C4)cc(Br)cc3[N+](=O)[O-])C[C@H]2C(=O)Nc2nn(C)cc2Br)c1 [Example 383, (2S,4R)—N-(4-bromo-1-methyl-1H-pyrazol-3-yl)-4-((4-bromo-2-((2R,6S)-2,6-dimethylmorpholin-4-carbonyl)-6-nitrophenyl)amino)-1-(5-(methylamino)nicotinoyl) pyrrolidin-2-formamide]	10 to 50
CNc1cncc(C(=O)N2C[C@H](Nc3c(C(=O)N4C[C@@H](C)O[C@@H](C)C4)cc(Br)cc3[N+](=O)[O-])C[C@H]2C(=O)Nc2ccn(C)n2)c1 [Example 385]	10 to 50
CNc1cncc(C(=O)N2C[C@H](Nc3c(C(=O)N4C[C@@H](C)O[C@@H](C)C4)cc(Br)cc3[N+](=O)[O-])C[C@H]2C(=O)N2CC(O)C2)c1 [Example 386]	50 to 100
CNc1cncc(C(=O)N2C[C@H](Nc3c(C(=O)N4C[C@@H](C)O[C@@H](C)C4)cc(Br)cc3[N+](=O)[O-])C[C@H]2C(=O)Nc2ccccc2)c1 [Example 387]	10 to 50
CNc1cncc(C(=O)N2C[C@H](Nc3c(C(=O)N4C[C@@H](C)O[C@@H](C)C4)cc(Br)cc3[N+](=O)[O-])C[C@H]2C(=O)NC2CC2)c1 [Example 388]	50 to 100
CNc1cncc(C(=O)N2C[C@H](Nc3c(C(=O)N4C[C@@H](C)O[C@@H](C)C4)cc(Br)cc3[N+](=O)[O-])C[C@H]2C(=O)NCc2ccccc2)c1 [Example 390]	10 to 50
CNc1cncc(C(=O)N2C[C@H](Nc3c(C(=O)N4C[C@@H](C)O[C@@H](C)C4)cc(Br)cc3[N+](=O)[O-])C[C@@H]2C#N)c1 [Example 391]	50 to 100
CNc1cncc(C(=O)N2C[C@H](Nc3c(C(=O)N4C[C@@H](C)O[C@@H](C)C4)cc(Br)cc3[N+](=O)[O-])C[C@H]2C#Cc2cnn(C)c2)c1 [Example 392]	50 to 100
CNc1cncc(C(=O)N2C[C@H](Nc3c(C(=O)N4C[C@@H](C)O[C@@H](C)C4)cc(Br)cc3[N+](=O)[O-])C[C@H]2C(=O)NC2CNC(=O)C2)c1 (some centres unmarked) [Example 393]	50 to 100
CNc1cncc(C(=O)N2C[C@H](Nc3c(C(=O)N4C[C@@H](C)O[C@@H](C)C4)cc(Br)cc3[N+](=O)[O-])C[C@H]2C(=O)NCCOC)c1 [Example 394]	50 to 100
CNc1cncc(C(=O)N2C[C@H](Nc3c(C(=O)N4C[C@@H](C)O[C@@H](C)C4)cc(Br)cc3[N+](=O)[O-])C[C@H]2C(=O)NCc2ccncc2)c1 [Example 395]	50 to 100
CNc1cncc(C(=O)N2C[C@H](Nc3c(C(=O)N4C[C@@H](C)O[C@@H](C)C4)cc(Br)cc3[N+](=O)[O-])C[C@H]2c2nnco2)c1 [Example 396]	50 to 100
CNc1cncc(C(=O)N2C[C@H](Nc3c(C(=O)N4C[C@@H](C)O[C@@H](C)C4)cc(Br)cc3[N+](=O)[O-])C[C@H]2C(=O)N[C@@H]2CCNC2=O)c1 [Example 397]	50 to 100
CNc1cncc(C(=O)N2C[C@H](Nc3c(C(=O)N4C[C@@H](C)O[C@@H](C)C4)cc(Br)cc3[N+](=O)[O-])CC[C@H]2C#N)c1 [Example 398]	10 to 50
CNc1cncc(C(=O)N2C[C@H](Nc3c(C(=O)N4C[C@@H](C)O[C@@H](C)C4)cc(Br)cc3[N+](=O)[O-])C[C@H]2C(=O)Nc2cc3cn(C)nc3cc2Cl)c1 [Example 399]	50 to 100
CNc1cncc(C(=O)N2C[C@H](Nc3c(C(=O)N4C[C@@H](C)O[C@@H](C)C4)cc(Br)cc3[N+](=O)[O-])C[C@H]2C#Cc2cnoc2)c1 [Example 400]	100 to 200
CNc1cncc(C(=O)N2C[C@H](Nc3c(C(=O)N4C[C@@H](C)O[C@@H](C)C4)cc(Br)cc3[N+](=O)[O-])C[C@H]2C(=O)Nc2cnn(C)c2)c1 [Example 401]	50 to 100
CNc1cncc(C(=O)N2C[C@H](Nc3c(C(=O)N4C[C@@H](C)O[C@@H](C)C4)cc(Br)cc3[N+](=O)[O-])C[C@H]2C(=O)N[C@H]2CCOC2)c1 [Example 402]	50 to 100
CNc1cncc(C(=O)N2C[C@H](Nc3c(C(=O)N4C[C@@H](C)O[C@@H](C)C4)cc(Br)cc3[N+](=O)[O-])CC[C@@H]2C#N)c1 [Example 403]	50 to 100

SMILES	IC50 [nM]
CNc1cncc(C(=O)N2C[C@H](Nc3c(C(=O)N4C[C@@H](C)O[C@@H](C)C4)cc(Br)cc3[N+](=O)[O-])C[C@H]2C(=O)N[C@H]2CCN(CCOC)C2)c1 [Example 404]	100 to 200
CNc1cncc(C(=O)N2C[C@H](Nc3c(C(=O)N4C[C@@H](C)O[C@@H](C)C4)cc(Br)cc3[N+](=O)[O-])[C@@H](OCCOC)C2)c1 [Example 405]	10 to 50
CNc1cnc(F)c(C(=O)N2C[C@H](Nc3c(C(=O)N4C[C@@H](C)O[C@@H](C)C4)cc(Br)cc3[N+](=O)[O-])[C@@H](OC)C2)c1 [Example 406]	50 to 100
CNc1cncc(C(=O)N2C[C@H](Nc3c(C(=O)N4C[C@@H](C)O[C@@H](C)C4)cc(Br)cc3[N+](=O)[O-])CC2C(=O)Nc2cc(Cl)n(C)n2)c1 (some centres unmarked) [Example 407]	50 to 100
CO[C@H]1CN(C(=O)c2cncc3[nH]cnc23)C[C@@H]1Nc1c(C(=O)N2C[C@@H](C)O[C@@H](C)C2)cc(Br)cc1[N+](=O)[O-] [Example 408]	10 to 50
CCn1cc(Br)c(NC(=O)[C@@H]2C[C@@H](Nc3c(C(=O)N4C[C@@H](C)O[C@@H](C)C4)cc(Br)cc3[N+](=O)[O-])CN2C(=O)c2cncc(NC)c2)n1 [Example 409]	50 to 100
CNc1cncc(C(=O)N2C[C@H](Nc3c(C(=O)N4C[C@@H](C)O[C@@H](C)C4)cc(Br)cc3[N+](=O)[O-])C[C@H]2C(=O)Nc2cn(C)c(=O)cc2Cl)c1 [Example 410]	100 to 200
CNc1cncc(C(=O)N2C[C@H](Nc3c(C(=O)N4CCCC(F)(F)C4)cc(Br)cc3[N+](=O)[O-])C[C@H]2C(=O)Nc2nn(C)cc2Br)c1 [Example 411]	50 to 100
CNc1cncc(C(=O)N2C[C@H](Nc3c(C(=O)N4C[C@@H](C)O[C@@H](C)C4)cc(Br)cc3[N+](=O)[O-])C[C@H]2C(=O)Nc2cn(C)nc2Br)c1 [Example 412]	50 to 100
CNc1cncc(C(=O)N2C[C@H](Nc3c(C(=O)N4C[C@@H](C)O[C@@H](C)C4)cc(Br)cc3[N+](=O)[O-])C[C@H]2C(=O)NC2CN(CCOC)C2)c1 [Example 413]	100 to 200
CNc1cncc(C(=O)N2C[C@H](Nc3c(C(=O)N4C[C@@H](C)O[C@@H](C)C4)cc(Br)cc3[N+](=O)[O-])C[C@H]2C#Cc2ccn(C)n2)c1 [Example 414]	100 to 200
CNc1cncc(C(=O)N2C[C@H](Nc3c(C(=O)N4C[C@@H](C)O[C@@H](C)C4)cc(Br)cc3[N+](=O)[O-])C[C@H]2C(=O)Nc2ccnc(F)c2)c1 [Example 415]	50 to 100
CNc1cncc(C(=O)N2C[C@H](Nc3c(C(=O)N4C[C@@H](C)O[C@@H](C)C4)cc(Br)cc3[N+](=O)[O-])C[C@H]2C(=O)Nc2ccc(C(F)(F)F)nc2)c1 [Example 416]	100 to 200
CNc1cncc(C(=O)N2C[C@H](Nc3c(C(=O)N4C[C@@H](C)O[C@@H](C)C4)cc(Br)cc3[N+](=O)[O-])C[C@H]2C(=O)Nc2nn(CC(F)(F)F)cc2Br)c1 [Example 417]	50 to 100
CNc1cncc(C(=O)N2C[C@H](Nc3c(C(=O)N4C[C@@H](C)O[C@@H](C)C4)cc(Br)cc3[N+](=O)[O-])C[C@H]2C(=O)Nc2nn(CCOC)cc2Br)c1 [Example 418, (2S,4R)-4-((4-bromo-2-((2R,6S)-2,6-dimethylmorpholin-4-carbonyl)-6-nitrophenyl)amino)-1-(5-(methylamino)nicotinoyl)-N-(4-bromo-1-(2-methoxyethyl)-1H-pyrazol-3-yl) pyrrolidine-2-formamide]	50 to 100
CNc1cncc(C(=O)N2C[C@H](Nc3c(C(=O)N4C[C@@H](C)O[C@@H](C)C4)cc(Br)cc3[N+](=O)[O-])C[C@H]2C(=O)NCc2ccnc(C(F)(F)F)c2)c1 [Example 419]	50 to 100
CNc1cncc(C(=O)N2C[C@H](Nc3c(C(=O)N4C[C@@H](C)O[C@@H](C)C4)cc(Br)cc3[N+](=O)[O-])C[C@H]2C(=O)Nc2nn(C3CC3)cc2Br)c1 [Example 420]	50 to 100
CNc1cncc(C(=O)N2C[C@H](Nc3c(C(=O)N4C[C@@H](C)O[C@@H](C)C4)cc(Br)cc3[N+](=O)[O-])C[C@H]2C(=O)N[C@@H]2COC(=O)C2)c1 [Example 421]	100 to 200
CO[C@H]1CN(C(=O)c2cncc3[nH]ccc23)C[C@@H]1Nc1c(C(=O)N2C[C@@H](C)O[C@@H](C)C2)cc(Br)cc1[N+](=O)[O-] [Example 423]	10 to 50
CNc1cncc(C(=O)N2C[C@H](Nc3c(C(=O)N4C[C@@H](C)O[C@@H](C)C4)cc(Br)cc3[N+](=O)[O-])C[C@H]2C(=O)Nc2nn(-c3cccnc3)cc2Br)c1 [Example 424]	50 to 100
CNc1cncc(C(=O)N2C[C@H](Nc3c(C(=O)N4C[C@@H](C)O[C@@H](C)C4)cc(Br)cc3[N+](=O)[O-])C[C@H]2C(=O)Nc2ccc3nn(C)cc3c2Cl)c1 [Example 425]	100 to 200
CNc1cncc(C(=O)N2C[C@H](Nc3c(C(=O)N4C[C@@H](C)O[C@@H](C)C4)cc(Br)cc3[N+](=O)[O-])C[C@H]2C(=O)NCc2ccnc(F)c2)c1 [Example 426]	100 to 200

— patent publication US20250042889A1, “3CLPRO PROTEASE INHIBITOR” (SHANGHAI QILU PHARMACEUTICAL RESEARCH AND DEVELOPMENT …, priority 2021, published 2025)
